# ChEMBL document CHEMBL5724914, “Linking interpersonal differences in gut microbiota composition and drug biotransformation activity” (2024)
# What was measured:
# [1] = human gut metagenome, 24 h, 2 µM
# [2] = (§1) The drug is tested on WLS-170 corresponding to human gut metagenome with ENA study accession number: PRJEB37062 and ENA sample accession number: ERS12561762 for biotransformation under anaerobic condition. The drug concentrations were measured over 9 timepoints collected between 0 and 24 hours of incubation by liquid-chromatography-coupled mass spectrometry (LC–MS); details: 2 µM
# [3] = human gut metagenome, 24 h, 2 µM; remark: listed apart in the source
# [4] = human gut metagenome, 24 h, 2 µM; remark: listed apart in the source
# [5] = as §1, with “Z-010” for “WLS-170”, “to” for “to human gut”, “ERS12561810” for “ERS12561762”; details: 2 µM
# [6] = as §1, with “Z-023” for “WLS-170”, “to” for “to human gut”, “ERS12561822” for “ERS12561762”; details: 2 µM
# [7] = human gut metagenome, 24 h, 2 µM; remark: listed apart in the source
# [8] = human gut metagenome, 24 h, 2 µM; remark: listed apart in the source
# [9] = as §1, with “WLS-077” for “WLS-170”, “ERS12561750” for “ERS12561762”; details: 2 µM
# [10] = as §1, with “Z-019” for “WLS-170”, “rat” for “human”, “ERS12561818” for “ERS12561762”; details: 2 µM
# [11] = as §1, with “Z-016” for “WLS-170”, “mouse” for “human”, “ERS12561815” for “ERS12561762”; details: 2 µM
# [12] = human gut metagenome, 24 h, 2 µM; remark: listed apart in the source
# [13] = human gut metagenome, 24 h, 2 µM; remark: listed apart in the source
# [14] = as §1, with “WLS-007” for “WLS-170”, “ERS12561742” for “ERS12561762”; details: 2 µM
# [15] = human gut metagenome, 24 h, 2 µM; remark: listed apart in the source
# [16] = human gut metagenome, 24 h, 2 µM; remark: listed apart in the source
# [17] = as §1, with “Z-021” for “WLS-170”, “to” for “to human gut”, “ERS12561820” for “ERS12561762”; details: 2 µM
# [18] = human gut metagenome, 24 h, 2 µM; remark: listed apart in the source
# [19] = human gut metagenome, 24 h, 2 µM; remark: listed apart in the source
# [20] = human gut metagenome, 24 h, 2 µM; remark: listed apart in the source
# Note: call rule not given here.
SMILES,Bacterial Biotransformation [1],Bacterial Biotransformation [2],Bacterial Biotransformation [3],Bacterial Biotransformation [4],Bacterial Biotransformation [5],Bacterial Biotransformation [6],Bacterial Biotransformation [7],Bacterial Biotransformation [8],Bacterial Biotransformation [9],Bacterial Biotransformation [10],Bacterial Biotransformation [11],Bacterial Biotransformation [12],Bacterial Biotransformation [13],Bacterial Biotransformation [14],Bacterial Biotransformation [15],Bacterial Biotransformation [16],Bacterial Biotransformation [17],Bacterial Biotransformation [18],Bacterial Biotransformation [19],Bacterial Biotransformation [20]
COc1cc2nc(N3CCN(C(=O)C4COc5ccccc5O4)CC3)nc(N)c2cc1OC.CS(=O)(=O)O (configuration not stated) [DOXAZOSIN MESYLATE],Compound metabolized,Compound metabolized,Compound NOT metabolized,Compound metabolized,Compound metabolized,Compound metabolized,Compound metabolized,Compound metabolized,Compound metabolized,Compound NOT metabolized,Compound NOT metabolized,Compound metabolized,Compound metabolized,Compound metabolized,Compound metabolized,Compound NOT metabolized,Compound NOT metabolized,Compound metabolized,Compound NOT metabolized,
CC(=O)O[C@H]1C(=O)[C@@]2(C)[C@H]([C@H](OC(=O)c3ccccc3)[C@]3(O)C[C@H](OC(=O)[C@H](O)[C@@H](NC(=O)c4ccccc4)c4ccccc4)C(C)=C1C3(C)C)[C@]1(OC(C)=O)CO[C@@H]1C[C@@H]2O [PACLITAXEL],Compound NOT metabolized,Compound NOT metabolized,Compound NOT metabolized,Compound NOT metabolized,Compound metabolized,Compound metabolized,Compound NOT metabolized,Compound NOT metabolized,Compound metabolized,Compound NOT metabolized,Compound metabolized,Compound NOT metabolized,Compound NOT metabolized,,Compound NOT metabolized,,Compound NOT metabolized,Compound NOT metabolized,Compound NOT metabolized,Compound metabolized
CC(C)C[C@H]1C(=O)N2CCC[C@H]2[C@]2(O)O[C@](NC(=O)[C@@H]3C=C4c5cccc6[nH]c(Br)c(c56)C[C@H]4N(C)C3)(C(C)C)C(=O)N12.CS(=O)(=O)O [BROMOCRIPTINE MESYLATE],Compound metabolized,Compound metabolized,,,Compound metabolized,Compound metabolized,Compound metabolized,Compound metabolized,Compound metabolized,Compound metabolized,Compound metabolized,Compound metabolized,Compound metabolized,Compound metabolized,Compound NOT metabolized,Compound metabolized,Compound metabolized,Compound metabolized,Compound metabolized,Compound metabolized
CC(=O)Nc1ccc(OC(C)=O)cc1 [DIACETAMATE],Compound metabolized,Compound metabolized,Compound metabolized,Compound metabolized,Compound metabolized,Compound metabolized,Compound metabolized,Compound metabolized,Compound metabolized,Compound metabolized,Compound metabolized,Compound metabolized,Compound metabolized,Compound metabolized,Compound metabolized,Compound metabolized,Compound metabolized,Compound metabolized,Compound metabolized,
CCc1oc2ccccc2c1C(=O)c1cc(Br)c(O)c(Br)c1 [BENZBROMARONE],Compound metabolized,Compound metabolized,Compound NOT metabolized,Compound metabolized,Compound metabolized,Compound NOT metabolized,Compound metabolized,Compound metabolized,Compound metabolized,Compound NOT metabolized,Compound NOT metabolized,Compound NOT metabolized,Compound NOT metabolized,Compound metabolized,Compound metabolized,,Compound NOT metabolized,Compound NOT metabolized,Compound metabolized,Compound metabolized
CCCCCNC(=N)N/N=C/c1c[nH]c2ccc(OC)cc12.O=C(O)/C=C\C(=O)O [TEGASEROD MALEATE],Compound metabolized,Compound metabolized,,Compound NOT metabolized,Compound metabolized,Compound metabolized,,Compound NOT metabolized,Compound metabolized,Compound NOT metabolized,Compound NOT metabolized,Compound NOT metabolized,Compound NOT metabolized,Compound NOT metabolized,Compound NOT metabolized,Compound metabolized,Compound NOT metabolized,Compound NOT metabolized,Compound NOT metabolized,Compound NOT metabolized
Cc1cc2c(s1)Nc1ccccc1N=C2N1CCN(C)CC1 [OLANZAPINE],Compound NOT metabolized,,Compound NOT metabolized,Compound metabolized,Compound NOT metabolized,Compound NOT metabolized,Compound metabolized,Compound NOT metabolized,Compound metabolized,Compound NOT metabolized,Compound NOT metabolized,Compound NOT metabolized,,Compound NOT metabolized,Compound NOT metabolized,Compound NOT metabolized,Compound NOT metabolized,Compound NOT metabolized,Compound NOT metabolized,Compound metabolized
COc1cc(C(=O)NCc2ccc(OCCN(C)C)cc2)cc(OC)c1OC [TRIMETHOBENZAMIDE],Compound NOT metabolized,Compound NOT metabolized,Compound NOT metabolized,Compound NOT metabolized,Compound NOT metabolized,Compound NOT metabolized,Compound NOT metabolized,Compound NOT metabolized,Compound NOT metabolized,Compound NOT metabolized,Compound NOT metabolized,Compound NOT metabolized,Compound NOT metabolized,Compound NOT metabolized,Compound NOT metabolized,Compound NOT metabolized,Compound NOT metabolized,Compound NOT metabolized,Compound NOT metabolized,
COc1cc(NC(C)CCCN)c2ncccc2c1.O=P(O)(O)O.O=P(O)(O)O (configuration not stated) [PRIMAQUINE PHOSPHATE],Compound NOT metabolized,Compound NOT metabolized,Compound metabolized,Compound NOT metabolized,Compound NOT metabolized,Compound NOT metabolized,Compound NOT metabolized,Compound NOT metabolized,Compound NOT metabolized,Compound NOT metabolized,Compound metabolized,Compound NOT metabolized,Compound NOT metabolized,,Compound NOT metabolized,Compound NOT metabolized,Compound NOT metabolized,Compound NOT metabolized,Compound NOT metabolized,Compound NOT metabolized
